In brackets after ≈: the same amount, converted by molar mass. Activity calls are given as the source filed them. The rule behind the calls is not given here.
Legend:
Staphylococcus aureus [1] = test: Antibacterial activity against Staphylococcus aureus MTCC 96 at 1000 ug/ml after 24 hrs by agar diffusion method; assay type: functional; conditions: MTCC 96, 24 h, read-out: IZ
Aspergillus flavus [2] = test: Antifungal activity against Aspergillus flavus at 500 ug/ml after 3 days by diffusion method; assay type: functional, organism-based
Aspergillus flavus [3] = test: Antifungal activity against Aspergillus flavus at 1000 ug/ml after 3 days by diffusion method; assay type: functional, organism-based
Fusarium [4] = test: Antifungal activity against Fusarium at 1000 ug/ml after 3 days by diffusion method; assay type: functional, organism-based
Escherichia coli [5] = test: Antibacterial activity against Escherichia coli MTCC 722 at 1000 ug/ml after 24 hrs by agar diffusion method; assay type: functional; conditions: MTCC 722, 24 h, read-out: IZ
Klebsiella pneumoniae [6] = test: Antibacterial activity against Klebsiella pneumoniae MTCC 109 at 1000 ug/ml after 24 hrs by agar diffusion method; assay type: functional; conditions: MTCC 109, 24 h, read-out: IZ
Fusarium [7] = test: Antifungal activity against Fusarium at 500 ug/ml after 3 days by diffusion method; assay type: functional, organism-based
Bacillus subtilis [8] = test: Antibacterial activity against Bacillus subtilis MTCC 619 at 1000 ug/ml after 24 hrs by agar diffusion method; assay type: functional; conditions: MTCC 619, 24 h, read-out: IZ
Bacillus subtilis [9] = test: Antibacterial activity against Bacillus subtilis MTCC 619 after 24 hrs by liquid dilution method; assay type: functional; conditions: MTCC 619, 24 h
Klebsiella pneumoniae [10] = test: Antibacterial activity against Klebsiella pneumoniae MTCC 109 after 24 hrs by liquid dilution method; assay type: functional; conditions: MTCC 109, 24 h
Staphylococcus aureus [11] = test: Antibacterial activity against Staphylococcus aureus MTCC 96 after 24 hrs by liquid dilution method; assay type: functional; conditions: MTCC 96, 24 h
Escherichia coli [12] = test: Antibacterial activity against Escherichia coli MTCC 722 after 24 hrs by liquid dilution method; assay type: functional; conditions: MTCC 722, 24 h

Q: For `Cc1ccc2c(c1)/N=C/c1ccccc1/C=N/c1cc(C)ccc1OCCO2`, which zone of inhibition at 1000 µg/mL (Staphylococcus aureus [1]) is on record?
A: 12 mm

Q: What about the Activity (Aspergillus flavus [2]) of the same compound?
A: Active

Q: And the Activity (Aspergillus flavus [3])?
A: Active

Q: And the Activity (Fusarium [4])?
A: Active

Q: What about the zone of inhibition at 1000 µg/mL (Escherichia coli [5]) of the same compound?
A: 13 mm

Q: What about the zone of inhibition at 1000 µg/mL (Klebsiella pneumoniae [6]) of the same compound?
A: 10 mm

Q: And the Activity (Fusarium [7])?
A: Active

Q: What about the zone of inhibition at 1000 µg/mL (Bacillus subtilis [8]) of the same compound?
A: 14 mm

Q: Which results are given for `CO[C@H]1/C=C/O[C@@]2(C)Oc3c(C)c(O)c4c(O)c(c(/C=N/N5CCN(C)CC5)c(O)c4c3C2=O)NC(=O)/C(C)=C\C=C\[C@H](C)[C@H](O)[C@@H](C)[C@@H](O)[C@@H](C)[C@H](OC(C)=O)[C@@H]1C` [RIFAMPIN]?
A: zone of inhibition at 1000 µg/mL (Staphylococcus aureus [1]): 49 mm; MIC (Bacillus subtilis [9]): 10 µg/mL (≈ 12.2 µM); MIC (Klebsiella pneumoniae [10]): 0.25 µg/mL (≈ 0.304 µM); MIC (Staphylococcus aureus [11]): 0.25 µg/mL (≈ 0.304 µM); zone of inhibition at 1000 µg/mL (Escherichia coli [5]): 48 mm; zone of inhibition at 1000 µg/mL (Klebsiella pneumoniae [6]): 45 mm; MIC (Escherichia coli [12]): 0.25 µg/mL (≈ 0.304 µM); zone of inhibition at 1000 µg/mL (Bacillus subtilis [8]): 51 mm

Q: `C1=N/c2cc3ccccc3cc2OCCCOc2cc3ccccc3cc2/N=C/c2ccccc2/1` was tested. Which zone of inhibition at 1000 µg/mL (Staphylococcus aureus [1]) did it give?
A: 14 mm

Q: What about the Activity (Aspergillus flavus [2]) of the same compound?
A: Active

Q: What about the Activity (Aspergillus flavus [3]) of the same compound?
A: Active

Q: What about the Activity (Fusarium [4]) of the same compound?
A: Active

Q: And the zone of inhibition at 1000 µg/mL (Escherichia coli [5])?
A: 13 mm

Q: And the zone of inhibition at 1000 µg/mL (Klebsiella pneumoniae [6])?
A: 11 mm

Q: What about the Activity (Fusarium [7]) of the same compound?
A: Active

Q: And the zone of inhibition at 1000 µg/mL (Bacillus subtilis [8])?
A: 13 mm

Q: What does the source list for `Cc1ccc2c(c1)/N=C/c1ccccc1/C=N/c1cc(C)ccc1OCCCO2`?
A: zone of inhibition at 1000 µg/mL (Staphylococcus aureus [1]): 14 mm; Activity (Aspergillus flavus [2]): Active; Activity (Aspergillus flavus [3]): Active; Activity (Fusarium [4]): Active; zone of inhibition at 1000 µg/mL (Escherichia coli [5]): 11 mm; zone of inhibition at 1000 µg/mL (Klebsiella pneumoniae [6]): 12 mm; Activity (Fusarium [7]): Active; zone of inhibition at 1000 µg/mL (Bacillus subtilis [8]): 13 mm

Q: Which zone of inhibition at 1000 µg/mL (Staphylococcus aureus [1]) does the source give for `C1=N/c2ncccc2OCCCOc2cccnc2/N=C/c2ccccc2/1` here?
A: 30 mm

Q: What about the Activity (Aspergillus flavus [2]) of the same compound?
A: Active

Q: And the Activity (Aspergillus flavus [3])?
A: Active

Q: What about the MIC (Bacillus subtilis [9]) of the same compound?
A: 10 µg/mL (≈ 27.9 µM)

Q: What about the MIC (Klebsiella pneumoniae [10]) of the same compound?
A: 2 µg/mL (≈ 5.58 µM)

Q: And the Activity (Fusarium [4])?
A: Active

Q: And the MIC (Staphylococcus aureus [11])?
A: 2 µg/mL (≈ 5.58 µM)

Q: And the zone of inhibition at 1000 µg/mL (Escherichia coli [5])?
A: 32 mm

Q: What about the zone of inhibition at 1000 µg/mL (Klebsiella pneumoniae [6]) of the same compound?
A: 29 mm

Q: What about the Activity (Fusarium [7]) of the same compound?
A: Active

Q: And the MIC (Escherichia coli [12])?
A: 2 µg/mL (≈ 5.58 µM)

Q: And the zone of inhibition at 1000 µg/mL (Bacillus subtilis [8])?
A: 35 mm

Q: How did the zone of inhibition at 1000 µg/mL (Staphylococcus aureus [1]) turn out when `CC1(C)S[C@@H]2[C@H](NC(=O)[C@H](N)c3ccccc3)C(=O)N2[C@H]1C(=O)O` [AMPICILLIN] was run?
A: 13 mm

Q: And the zone of inhibition at 1000 µg/mL (Escherichia coli [5])?
A: 8 mm

Q: And the zone of inhibition at 1000 µg/mL (Klebsiella pneumoniae [6])?
A: 7 mm

Q: And the zone of inhibition at 1000 µg/mL (Bacillus subtilis [8])?
A: 11 mm

Q: `CN[C@@H]1[C@H](O[C@H]2[C@H](O[C@H]3[C@H](O)[C@@H](O)[C@H](N=C(N)N)[C@@H](O)[C@@H]3N=C(N)N)O[C@@H](C)[C@]2(O)C=O)O[C@@H](CO)[C@H](O)[C@H]1O` [STREPTOMYCIN] was tested. Which zone of inhibition at 1000 µg/mL (Staphylococcus aureus [1]) did it give?
A: 12 mm

Q: And the MIC (Bacillus subtilis [9])?
A: 2 µg/mL (≈ 3.44 µM)

Q: What about the zone of inhibition at 1000 µg/mL (Escherichia coli [5]) of the same compound?
A: 6 mm

Q: And the zone of inhibition at 1000 µg/mL (Klebsiella pneumoniae [6])?
A: 6 mm

Q: What about the zone of inhibition at 1000 µg/mL (Bacillus subtilis [8]) of the same compound?
A: 10 mm

Q: How did the zone of inhibition at 1000 µg/mL (Staphylococcus aureus [1]) turn out when `C1=N/c2ccccc2OCCCOc2ccccc2/N=C/c2ccccc2/1` was run?
A: 11 mm

Q: What about the Activity (Aspergillus flavus [2]) of the same compound?
A: Active

Q: And the Activity (Aspergillus flavus [3])?
A: Active

Q: What about the Activity (Fusarium [4]) of the same compound?
A: Active

Q: What about the zone of inhibition at 1000 µg/mL (Escherichia coli [5]) of the same compound?
A: 11 mm

Q: And the zone of inhibition at 1000 µg/mL (Klebsiella pneumoniae [6])?
A: 12 mm

Q: What about the Activity (Fusarium [7]) of the same compound?
A: Active

Q: And the zone of inhibition at 1000 µg/mL (Bacillus subtilis [8])?
A: 10 mm

Q: How did the zone of inhibition at 1000 µg/mL (Staphylococcus aureus [1]) turn out when `Cc1cccc2c1/N=C/c1ccccc1/C=N/c1c(C)cccc1OCCCO2` was run?
A: 15 mm

Q: What about the Activity (Aspergillus flavus [2]) of the same compound?
A: Active

Q: And the Activity (Aspergillus flavus [3])?
A: Active

Q: What about the Activity (Fusarium [4]) of the same compound?
A: Active

Q: And the zone of inhibition at 1000 µg/mL (Escherichia coli [5])?
A: 12 mm

Q: What about the zone of inhibition at 1000 µg/mL (Klebsiella pneumoniae [6]) of the same compound?
A: 11 mm

Q: And the Activity (Fusarium [7])?
A: Active

Q: What about the zone of inhibition at 1000 µg/mL (Bacillus subtilis [8]) of the same compound?
A: 13 mm

Q: How did the zone of inhibition at 1000 µg/mL (Staphylococcus aureus [1]) turn out when `Cc1cccc2c1/N=C/c1ccccc1/C=N/c1c(C)cccc1OCCO2` was run?
A: 14 mm

Q: What about the Activity (Aspergillus flavus [2]) of the same compound?
A: Active

Q: What about the Activity (Aspergillus flavus [3]) of the same compound?
A: Active

Q: And the Activity (Fusarium [4])?
A: Active

Q: What about the zone of inhibition at 1000 µg/mL (Escherichia coli [5]) of the same compound?
A: 11 mm

Q: And the zone of inhibition at 1000 µg/mL (Klebsiella pneumoniae [6])?
A: 12 mm

Q: And the Activity (Fusarium [7])?
A: Active

Q: And the zone of inhibition at 1000 µg/mL (Bacillus subtilis [8])?
A: 12 mm

Q: With `C1=N/c2cc3ccccc3cc2OCCOc2cc3ccccc3cc2/N=C/c2ccccc2/1` as the compound, how does the zone of inhibition at 1000 µg/mL (Staphylococcus aureus [1]) read?
A: 15 mm

Q: What about the Activity (Aspergillus flavus [2]) of the same compound?
A: Active

Q: What about the Activity (Aspergillus flavus [3]) of the same compound?
A: Active

Q: And the Activity (Fusarium [4])?
A: Active

Q: And the zone of inhibition at 1000 µg/mL (Escherichia coli [5])?
A: 14 mm

Q: And the zone of inhibition at 1000 µg/mL (Klebsiella pneumoniae [6])?
A: 14 mm

Q: What about the Activity (Fusarium [7]) of the same compound?
A: Active

Q: What about the zone of inhibition at 1000 µg/mL (Bacillus subtilis [8]) of the same compound?
A: 15 mm

Q: Which zone of inhibition at 1000 µg/mL (Staphylococcus aureus [1]) does the source give for `C1=N/c2ccccc2OCCOc2ccccc2/N=C/c2ccccc2/1` here?
A: 12 mm

Q: And the Activity (Aspergillus flavus [2])?
A: Active

Q: What about the Activity (Aspergillus flavus [3]) of the same compound?
A: Active

Q: And the Activity (Fusarium [4])?
A: Active

Q: And the zone of inhibition at 1000 µg/mL (Escherichia coli [5])?
A: 10 mm

Q: What about the zone of inhibition at 1000 µg/mL (Klebsiella pneumoniae [6]) of the same compound?
A: 12 mm

Q: What about the Activity (Fusarium [7]) of the same compound?
A: Active

Q: What about the zone of inhibition at 1000 µg/mL (Bacillus subtilis [8]) of the same compound?
A: 11 mm

Q: Which zone of inhibition at 1000 µg/mL (Staphylococcus aureus [1]) does the source give for `C1=N/c2ncccc2OCCOc2cccnc2/N=C/c2ccccc2/1` here?
A: 35 mm

Q: What about the Activity (Aspergillus flavus [2]) of the same compound?
A: Active

Q: What about the Activity (Aspergillus flavus [3]) of the same compound?
A: Active

Q: And the MIC (Bacillus subtilis [9])?
A: 10 µg/mL (≈ 29 µM)

Q: What about the MIC (Klebsiella pneumoniae [10]) of the same compound?
A: 2 µg/mL (≈ 5.81 µM)

Q: And the Activity (Fusarium [4])?
A: Active

Q: What about the MIC (Staphylococcus aureus [11]) of the same compound?
A: 5 µg/mL (≈ 14.5 µM)

Q: And the zone of inhibition at 1000 µg/mL (Escherichia coli [5])?
A: 40 mm

Q: What about the zone of inhibition at 1000 µg/mL (Klebsiella pneumoniae [6]) of the same compound?
A: 32 mm

Q: What about the Activity (Fusarium [7]) of the same compound?
A: Active

Q: What about the MIC (Escherichia coli [12]) of the same compound?
A: 1 µg/mL (≈ 2.9 µM)

Q: And the zone of inhibition at 1000 µg/mL (Bacillus subtilis [8])?
A: 38 mm
